Tests used:
[1] = target: T1, human Nav1.5 channels stably expressed in HEK 293 cells (Homo sapiens, UniProt Q14524); assay: PatchXpress 7000 automated patch-clamp, sodium current; assay type: cell-based; conditions: selectivity over Nav1.5
T1 construct: expressed in transfected cells
In short: (§1)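 IC50 values came from Hill-equation fits of rundown-corrected inhibition. PatchXpress recordings at 22° C held cells 20 mV negative to V0.5 inact and applied 10 Hz trains of 30 ms steps to −20 mV (Nav1.7) or an 8000 ms prepulse 7 mV positive to V0.5 inact. […]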

[2] = target: T2, human Nav1.7 channels stably expressed in HEK 293 cells (Homo sapiens, UniProt Q15858); assay: as above; assay type: cell-based; conditions: 22° C., read-out: potency for the Nav 1.7 sodium ion channel (as measured by PatchXpress)
T2 construct: expressed in transfected cells
In short: as §1

T2 sequence (Q15858 whole entry): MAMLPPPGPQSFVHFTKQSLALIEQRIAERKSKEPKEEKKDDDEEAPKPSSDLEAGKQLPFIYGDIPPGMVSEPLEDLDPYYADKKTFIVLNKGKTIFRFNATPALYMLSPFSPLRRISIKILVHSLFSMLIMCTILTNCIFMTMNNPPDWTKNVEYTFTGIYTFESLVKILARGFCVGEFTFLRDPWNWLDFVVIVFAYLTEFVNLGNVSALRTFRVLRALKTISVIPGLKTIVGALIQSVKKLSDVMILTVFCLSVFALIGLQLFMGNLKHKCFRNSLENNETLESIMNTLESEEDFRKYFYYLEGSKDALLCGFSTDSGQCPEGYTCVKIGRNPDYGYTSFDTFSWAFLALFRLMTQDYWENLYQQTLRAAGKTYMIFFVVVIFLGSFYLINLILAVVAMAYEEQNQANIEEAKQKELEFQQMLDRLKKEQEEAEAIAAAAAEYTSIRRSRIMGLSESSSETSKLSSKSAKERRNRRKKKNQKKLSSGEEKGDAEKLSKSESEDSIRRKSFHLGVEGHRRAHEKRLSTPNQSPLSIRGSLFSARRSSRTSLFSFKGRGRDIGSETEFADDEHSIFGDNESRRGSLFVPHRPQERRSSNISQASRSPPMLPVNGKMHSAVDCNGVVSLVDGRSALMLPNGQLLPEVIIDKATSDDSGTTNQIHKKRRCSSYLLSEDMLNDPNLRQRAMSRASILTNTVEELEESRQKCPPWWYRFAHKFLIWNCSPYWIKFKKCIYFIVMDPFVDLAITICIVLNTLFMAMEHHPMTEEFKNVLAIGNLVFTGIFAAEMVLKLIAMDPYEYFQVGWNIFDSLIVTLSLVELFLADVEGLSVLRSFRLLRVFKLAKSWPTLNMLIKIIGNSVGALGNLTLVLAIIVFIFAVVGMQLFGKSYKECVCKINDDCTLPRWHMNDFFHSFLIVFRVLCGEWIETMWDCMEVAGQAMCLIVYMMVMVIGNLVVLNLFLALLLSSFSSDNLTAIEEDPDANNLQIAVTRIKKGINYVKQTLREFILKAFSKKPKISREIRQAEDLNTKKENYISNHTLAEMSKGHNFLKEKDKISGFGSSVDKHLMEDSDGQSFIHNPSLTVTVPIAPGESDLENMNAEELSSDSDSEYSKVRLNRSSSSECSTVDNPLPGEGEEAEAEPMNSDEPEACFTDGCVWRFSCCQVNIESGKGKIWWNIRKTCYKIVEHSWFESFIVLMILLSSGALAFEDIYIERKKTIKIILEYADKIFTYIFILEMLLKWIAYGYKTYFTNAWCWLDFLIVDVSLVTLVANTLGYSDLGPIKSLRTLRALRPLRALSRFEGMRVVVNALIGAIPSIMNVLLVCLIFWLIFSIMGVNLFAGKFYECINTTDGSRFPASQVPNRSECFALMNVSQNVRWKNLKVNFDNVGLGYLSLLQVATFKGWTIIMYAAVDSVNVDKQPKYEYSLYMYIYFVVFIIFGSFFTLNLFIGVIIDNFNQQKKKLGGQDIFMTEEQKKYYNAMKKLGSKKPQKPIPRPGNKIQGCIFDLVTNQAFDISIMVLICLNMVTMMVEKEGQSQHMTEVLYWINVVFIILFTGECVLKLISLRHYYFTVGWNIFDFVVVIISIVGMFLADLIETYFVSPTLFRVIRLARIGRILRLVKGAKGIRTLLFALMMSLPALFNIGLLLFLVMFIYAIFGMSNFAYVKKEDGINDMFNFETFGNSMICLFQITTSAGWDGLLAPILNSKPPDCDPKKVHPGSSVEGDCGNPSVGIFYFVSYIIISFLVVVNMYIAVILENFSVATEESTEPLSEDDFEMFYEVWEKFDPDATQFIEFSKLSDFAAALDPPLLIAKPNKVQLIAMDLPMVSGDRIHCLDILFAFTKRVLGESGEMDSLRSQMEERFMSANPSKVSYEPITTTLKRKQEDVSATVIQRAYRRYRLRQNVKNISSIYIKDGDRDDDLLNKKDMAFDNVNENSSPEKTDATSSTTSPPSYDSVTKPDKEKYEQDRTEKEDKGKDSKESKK
T1 sequence (Q14524 whole entry): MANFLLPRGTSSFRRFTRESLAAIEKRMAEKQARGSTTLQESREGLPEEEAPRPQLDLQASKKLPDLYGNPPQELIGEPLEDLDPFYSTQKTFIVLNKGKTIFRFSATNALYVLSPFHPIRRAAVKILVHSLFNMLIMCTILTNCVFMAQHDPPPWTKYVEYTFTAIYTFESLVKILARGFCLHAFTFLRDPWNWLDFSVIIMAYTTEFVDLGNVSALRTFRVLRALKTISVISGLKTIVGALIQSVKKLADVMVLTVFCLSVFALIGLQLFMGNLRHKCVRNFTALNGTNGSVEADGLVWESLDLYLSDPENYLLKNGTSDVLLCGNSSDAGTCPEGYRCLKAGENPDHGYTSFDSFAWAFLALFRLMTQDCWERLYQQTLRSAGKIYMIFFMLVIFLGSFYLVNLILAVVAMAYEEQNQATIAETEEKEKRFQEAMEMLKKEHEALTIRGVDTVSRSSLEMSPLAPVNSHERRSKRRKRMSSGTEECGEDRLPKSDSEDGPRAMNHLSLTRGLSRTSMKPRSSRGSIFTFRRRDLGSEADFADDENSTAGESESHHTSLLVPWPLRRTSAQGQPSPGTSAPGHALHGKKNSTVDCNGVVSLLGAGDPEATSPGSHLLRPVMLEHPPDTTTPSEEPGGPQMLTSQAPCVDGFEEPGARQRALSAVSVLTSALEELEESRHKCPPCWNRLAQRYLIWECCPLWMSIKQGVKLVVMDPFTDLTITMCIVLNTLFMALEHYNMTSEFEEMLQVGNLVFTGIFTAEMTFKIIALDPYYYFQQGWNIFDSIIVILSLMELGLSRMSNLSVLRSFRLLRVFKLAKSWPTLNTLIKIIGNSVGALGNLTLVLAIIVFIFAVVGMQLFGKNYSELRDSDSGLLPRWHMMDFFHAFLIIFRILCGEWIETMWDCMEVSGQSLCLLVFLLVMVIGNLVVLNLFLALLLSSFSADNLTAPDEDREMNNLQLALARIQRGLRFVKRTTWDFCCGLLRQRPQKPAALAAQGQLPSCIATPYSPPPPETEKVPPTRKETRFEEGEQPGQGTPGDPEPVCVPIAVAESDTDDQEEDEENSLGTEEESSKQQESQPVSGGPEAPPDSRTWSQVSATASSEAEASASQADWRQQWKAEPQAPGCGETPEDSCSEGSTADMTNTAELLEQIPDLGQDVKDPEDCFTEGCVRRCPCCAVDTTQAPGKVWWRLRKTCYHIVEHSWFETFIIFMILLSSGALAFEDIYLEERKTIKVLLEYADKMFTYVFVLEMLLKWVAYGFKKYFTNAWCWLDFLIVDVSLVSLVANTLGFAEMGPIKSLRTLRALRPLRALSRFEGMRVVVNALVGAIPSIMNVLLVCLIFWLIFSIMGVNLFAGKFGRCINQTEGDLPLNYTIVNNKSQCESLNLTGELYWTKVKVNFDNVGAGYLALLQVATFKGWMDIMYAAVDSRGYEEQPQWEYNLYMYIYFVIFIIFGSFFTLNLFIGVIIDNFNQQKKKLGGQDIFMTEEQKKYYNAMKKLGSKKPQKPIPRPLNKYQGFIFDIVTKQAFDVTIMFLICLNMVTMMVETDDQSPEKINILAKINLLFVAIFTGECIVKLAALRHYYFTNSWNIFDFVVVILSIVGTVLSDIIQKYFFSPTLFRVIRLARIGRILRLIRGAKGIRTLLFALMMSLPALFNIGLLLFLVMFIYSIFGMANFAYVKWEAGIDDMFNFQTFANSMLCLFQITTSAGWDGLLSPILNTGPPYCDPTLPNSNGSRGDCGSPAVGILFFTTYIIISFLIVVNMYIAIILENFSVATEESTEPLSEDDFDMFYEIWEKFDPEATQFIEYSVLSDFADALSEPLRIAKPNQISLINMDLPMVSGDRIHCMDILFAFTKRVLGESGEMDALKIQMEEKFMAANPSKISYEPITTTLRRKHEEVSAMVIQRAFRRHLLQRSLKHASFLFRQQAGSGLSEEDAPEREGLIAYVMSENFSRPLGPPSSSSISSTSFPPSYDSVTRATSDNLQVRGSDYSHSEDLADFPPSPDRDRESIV

| SMILES | ratio of Nav 1.5:Nav 1.7 potency, determined by PatchXpress measurement [1] | IC50 [2] |
| --- | --- | --- |
| CC(c1cccc2c1CC(N)CC2)n1c(=O)oc2cc(S(=O)(=O)Nc3ncns3)c(F)cc21 (racemic) [Compound 23-24, (R,R and S,R) or (R,S and S,S)-3-[1-(7-amino-5,6,7,8-tetrahydronaphthalen-1-yl)ethyl]-5-fluoro-2-oxo-N-1,2,4-thiadiazol-5-yl-2,3-dihydro-1,3-benzoxazole-6-sutfonamide] | 1119 | 15 nM |
| O=c1oc2cc(S(=O)(=O)Nc3ncns3)c(F)cc2n1C1CCCc2ccccc21 (stereo not drawn) [Compound 39-10, 5-fluoro-2-oxo-3-(1,2,3,4-tetrahydronaphthalen-1-yl)-N-1,2,4-thiadiazol-5-yl-2,3-dihydro-1,3-benzoxazole-6-sulfonamide] | 199 | 168 nM |
| CC(=O)OCC(=O)NC1CCc2cccc(Cn3c(=O)oc4cc(S(=O)(=O)Nc5ncns5)c(F)cc43)c2C1 (single isomer, unassigned) [Compound 23-4, (R or S)-2-[(8-{[5-fluoro-2-oxo-6-(1,2,4-thiadiazol-5-ylsulfamoyl)-1,3-benzoxazol-3(2H)-yl]methyl}-1,2,3,4-tetrahydronaphthalen-2-yl)amino]-2-oxoethyl acetate] | 97 | 310 nM |
| CC(c1cccc2c1CNCC2)n1c(=O)oc2cc(S(=O)(=O)Nc3ncns3)c(Cl)cc21 (racemic) [Compound 34-7, (+/−)-5-chloro-2-oxo-3-[1-(1,2,3,4-tetrahydroisoquinolin-8-yl)ethyl]-N-1,2,4-thiadiazol-5-yl-2,3-dihydro-1,3-benzoxazole-6-sulfonamide] | 129 | 565 nM |
| NC1CCc2c(cccc2Cn2c(=O)oc3cc(S(=O)(=O)Nc4ncns4)ccc32)C1 (racemic) [Compound 23-3, (+/−)-3-[(6-amino-5,6,7,8-tetrahydronaphthalen-1-yl)methyl]-2-oxo-N-1,2,4-thiadiazol-5-yl-2,3-dihydro-1,3-benzoxazole-6-sulfonamide] | 88 | 342 nM |
| O=c1oc2cc(S(=O)(=O)Nc3ncns3)ccc2n1Cc1cccc2cc(Cl)ncc12 [Compound 27-7, 3-[(3-chloroisoquinolin-8-yl)methyl]-2-oxo-N-1,2,4-thiadiazol-5-yl-2,3-dihydro-1,3-benzoxazole] | 144 | 182 nM |
| C[C@H](c1ccccc1C#CCN)n1c(=O)oc2cc(S(=O)(=O)Nc3ncns3)c(F)cc21 [Compound 17-20, 3-{(1R)-1-[2-(3-aminoprop-1-yn-1-yl)phenyl]ethyl}-5-fluoro-2-oxo-N-1,2,4-thiadiazol-5-yl-2,3-dihydro-1,3-benzoxazole-6-sulfonamide] | 2324 | 13 nM |
| Nc1cc2c(Cn3c(=O)oc4cc(S(=O)(=O)Nc5ncns5)c(F)cc43)cccc2cn1 [Compound 26-5, 3-((3-Aminoisoquinolin-5-yl)methyl)-5-fluoro-2-oxo-N-(1,2,4-thiadiazol-5-yl)-2,3-dihydrobenzo[d]oxazole-6-sulfonamide] | 450 | 67 nM |
| C[C@H](c1ccccc1C#CCCO)n1c(=O)oc2cc(S(=O)(=O)Nc3ncns3)c(F)cc21 [Compound 17-4, 5-fluoro-3-{(1R)-1-[2-(4-hydroxybut-1-yn-1-yl)phenyl]ethyl}-2-oxo-N-1,2,4-thiadiazol-5-yl-2,3-dihydro-1,3-benzoxazole-6-sulfonamide] | 360 | 147 nM |
| O=c1oc2cc(S(=O)(=O)Nc3nccs3)c(F)cc2n1C1CCCc2ccc(F)cc21 (stereo not drawn) [Compound 43-12, 5-fluoro-3-(7-fluoro-1,2,3,4-tetrahydronaphthalen-1-yl)-2-oxo-N-1,3-thiazol-2-yl-2,3-dihydro-1,3-benzoxazole-6-sulfonamide] | 145 | 30 nM |
| O=c1oc2cc(S(=O)(=O)Nc3ncns3)c(F)cc2n1Cc1cccc2c1CC(NCCO)CC2 (racemic) [Compound 23-22, (+/−)-5-fluoro-3-({7-[(2-hydroxyethyl)amino]-5,6,7,8-tetrahydronaphthalen-1-yl}methyl)-2-oxo-N-1,2,4-thiadiazol-5-yl-2,3-dihydro-1,3-benzoxazole-6-sulfonamide] | 221 | 26 nM |
| C[C@H](c1ccccc1C#C[C@H]1CCCN1)n1c(=O)oc2cc(S(=O)(=O)Nc3ncns3)c(F)cc21 [Compound 17-21, 5-fluoro-2-oxo-3-[(1R)-1-{2-[(2R)-pyrrolidin-2-ylethynyl]phenyl}ethyl]-N-1,2,4-thiadiazol-5-yl-2,3-dihydro-1,3-benzoxazole-6-sulfonamide] | 2344 | 13 nM |
| C[C@H](c1ccccc1C#CCC1CCCN1)n1c(=O)oc2cc(S(=O)(=O)Nc3ncns3)c(F)cc21 (stereo partly drawn) [Compound 17-13, 5-fluoro-2-oxo-3-{(1R)-1-[2-(3-pyrrolidin-2-ylprop-1-yn-1-yl)phenyl]ethyl}-N-1,2,4-thiadiazol-5-yl-2,3-dihydro-1,3-benzoxazole-6-sulfonamide] | 789 | 34 nM |
| C[C@H](c1ccccc1C#CCN)n1c(=O)oc2cc(S(=O)(=O)Nc3ncns3)c(Cl)cc21 [Compound 34-8, 3-{(1R)-1-[2-(3-aminoprop-1-yn-1-yl)phenyl]ethyl}-5-chloro-2-oxo-N-1,2,4-thiadiazol-5-yl-2,3-dihydro-1,3-benzoxazole-6-sulfonamide] | 40 | 40 nM |
| O=c1oc2cc(S(=O)(=O)Nc3ncns3)c(F)cc2n1Cc1cccc2c1CC(N1CCOCC1)CC2 (racemic) [Compound 23-16, (+/−)-5-fluoro-3-[(7-morpholin-4-yl-5,6,7,8-tetrahydronaphthalen-1-yl)methyl]-2-oxo-N-1,2,4-thiadiazol-5-yl-2,3-dihydro-1,3-benzoxazole-6-sulfonamide] | 431 | 70 nM |
| O=c1oc2cc(S(=O)(=O)Nc3nccs3)c(F)cc2n1C1CC2(CCC2)Oc2ccc(F)cc21 (stereo not drawn) [Compound 43-11, 5-fluoro-3-(6-fluoro-3,4-dihydrospiro[chromene-2,1′-cyclobutan]-4-yl)-2-oxo-N-1,3-thiazol-2-yl-2,3-dihydro-1,3-benzoxazole-6-sulfonamide] | 196 | 41 nM |
| O=c1oc2cc(S(=O)(=O)Nc3ncns3)c(F)cc2n1Cc1cccc2c1CC(O)CC2 (stereo not drawn) [Compound 21-1, 5-fluoro-3-((7-hydroxy-5,6,7,8-tetrahydronaphthalen-1-yl)methyl)-2-oxo-N-(1,2,4-thiadiazol-5-yl)-2,3-dihydrobenzo[d]oxazole-6-sulfonamide] | 113 | 121 nM |
| CC(c1cccc(-c2ccnn2C)c1)n1c(=O)oc2cc(S(=O)(=O)Nc3ncns3)c(F)cc21 (stereo not drawn) [Compound 13-10, 5-fluoro-3-{1-[3-(1-methyl-1H-pyrazol-5-yl)phenyl]ethyl}-2-oxo-N-1,2,4-thiadiazol-5-yl-2,3-dihydro-1,3-benzoxazole-6-sulfonamide] | 256 | 63 nM |
| Cc1n[nH]cc1-c1cccc([C@@H](C)n2c(=O)oc3cc(S(=O)(=O)Nc4ncns4)c(F)cc32)c1 [Compound 28-5, 5-fluoro-3-{(1R)-1-[3-(3-methyl-1H-pyrazol-4-yl)phenyl]ethyl}-2-oxo-N-1,2,4-thiadiazol-5-yl-2,3-dihydro-1,3-benzoxazole-6-sulfonamide] | 64 | 48 nM |
| CN(C)C1CCc2cccc(Cn3c(=O)oc4cc(S(=O)(=O)Nc5ncns5)c(F)cc43)c2C1 (racemic) [Compound 23-15, (+/−)-3-{[7-(dimethylamino)-5,6,7,8-tetrahydronaphthalen-1-yl]methyl}-5-fluoro-2-oxo-N-1,2,4-thiadiazol-5-yl-2,3-dihydro-1,3-benzoxazole-6-sulfonamide] | 207 | 72 nM |
| C[C@@H](c1cccc2cncn12)n1c(=O)oc2cc(S(=O)(=O)Nc3ncns3)c(F)cc21 [Compound 15-4, 5-fluoro-3-[(1S)-1-imidazo[1,5-a]pyridin-5-ylethyl]-2-oxo-N-1,2,4-thiadiazol-5-yl-2,3-dihydro-1,3-benzoxazole-6-sulfonamide] | 60 | 235 nM |
| O=c1oc2cc(S(=O)(=O)Nc3ncns3)c(F)cc2n1C1CC2(CCN(Cc3ccccc3)CC2)Oc2ccccc21 (stereo not drawn) [Compound 39-11, 3-(1′-benzyl-3,4-dihydrospiro[chromene-2,4′-piperidin]-4-yl)-5-fluoro-2-oxo-N-1,2,4-thiadiazol-5-yl-2,3-dihydro-1,3-benzoxazole-6-sulfonamide] | 114 | 166 nM |
| C[C@H](c1cccc2c1CN(S(C)(=O)=O)CC2)n1c(=O)oc2cc(S(=O)(=O)Nc3ncns3)c(F)cc21 [Compound 36-5, 5-fluoro-3-{(1R)-1-[2-(methylsulfonyl)-1,2,3,4-tetrahydroisoquinolin-8-yl]ethyl}-2-oxo-N-1,2,4-thiadiazol-5-yl-2,3-dihydro-1,3-benzoxazole-6-sulfonamide] | 35 | 155 nM |
| C[C@H](c1ccccc1C1(O)CNC1)n1c(=O)oc2cc(S(=O)(=O)Nc3nccs3)c(F)cc21 [Compound 43-22, 5-fluoro-3-{(1R)-1-[2-(3-hydroxyazetidin-3-yl)phenyl]ethyl}-2-oxo-N-1,3-thiazol-2-yl-2,3-dihydro-1,3-benzoxazole-6-sulfonamide] | 703 | 61 nM |

Reference: US9273040B2 (Merck Sharp & Dohme Corp., priority 2011, dated 2016)
